The source of these data is patent US6297250A, “Pyrimidopyrimidine compounds” (Newcastle University Ventures Limited, priority 1997, dated 2001).

In this test the test system is L1210 cells. Nature of the test: Nucleoside transport inhibition assay: inhibition of 3H-thymidine uptake, with or without AGP or HSA. The conditions noted are these: for inhibition at 0.25 µM: L1210, 0.25 μM compound; for inhibition at 1 µM: L1210, 1 μM compound; for inhibition at 10 µM: L1210, 10 μM compound; for inhibition at 0.1 µM: L1210, 0.1 μM compound. The class given is cell-based, murine. As for the experimental part:
In vitro activity. […] For testing the compounds an established nucleoside transport assay involving measurement of thymidine uptake was adapted. Murine leukaemia L1210 cells were used in this assay as their nucleoside transport characteristics are well known. This assay for measuring thymidine uptake used a modification of the rapid mixing technique of Wohleheuter, R. […] Materials used included a transport buffer comprising 130 mM NaCl, 5 mM KC1, 1 mM MgCl, 5 mM NaH2 PO4, 10 mM glucose and 10 mM HEPES. This buffer was made up as sterile 5× concentrate and reconstituted in distilled water and adjusted to pH 7.4 immediately prior to carrying out the assay. […] The supernatant was aspirated and the cells were washed with ice-cold transport buffer and centrifuged again at 1000 rpm for 5 minutes at 4° C. The supernatant was removed and the cells were resuspended in ice-cold transport buffer to give a final cell density of 2-4×10^7 cells/mi. Cells were left on ice for 30 minutes recovery prior to starting the assay. […] The suspension was mixed well and 100 μl was layered onto 150 μl silicone oil (9:11 Dow Corning 556 (Sp.Gr. 0.98):Dow Corning 550 (Sp.Gr. 1.068) (final Sp.Gr. 1.028) overlaying 50 μl 3M KOH in 6 replicate 0.5 ml microfuge tubes. […] The tubes were immediately transferred to a microfuge (Eppendorf) and spun at 12000 rpm for 2 minutes to pellet the cells through the oil and into the KOH. The tubes were capped and the cells left to solubilise in the KOH for 1 hour. Cell number and viability for each run was determined by haemocytometer counting using trypan blue exclusion. […] The tubes were capped and cut in the oil layer such that the bottom portion (cells solubilised in KOH) fell into a 20 ml scintillation vial. 1 ml 0.25M acetic acid followed by 1 ml air was injected into the tube using a 2 ml syringe and 23-gauge needle to disperse and neutralise the KOH-solubilisedcells. 10 ml of Optiphase HiSafe™ scintillant was added and the vials capped and shaken. […] The [^14 C]:[^3 H] ratio was used to calculate the amount of non-transported contaminating [^3 H]thymidine in the extracellular space.

Where [1] appears, read: Mus musculus, no AGP, read-out: % Inhibition of 3H-thymidine uptake, No AGP.
The mark [2] stands for this setting: Mus musculus, +5 mg/ml AGP vs no AGP, read-out: % Reduction (of inhibition by AGP).
The mark [3] stands for this setting: Mus musculus, +5 mg/ml AGP, read-out: % Inhibition of 3H-thymidine uptake, +5 mg/ml AGP.
The mark [4] stands for this setting: +5 mg/ml AGP, compound concentration not assignable from the table.
Setting [5] is: 0.1 μM compound, no AGP, 0.1 µM.

“And” between values parts separate entries of the source, which are not always exact repeats. Equal entries are not always repeated. Where two headings read alike, the source gives them in different places.

Turning to `COc1ccc(CNc2nc(OCC(C)O)nc3c(NCc4ccc(OC)cc4)nc(OCC(C)O)nc23)cc1` (centres unmarked) [NU3087, 2,6-Di(2'-hydroxypropoxy)-4,8-bis(4'-methoxybenzylamino)pyrimidopyrimidine], the inhibition at 0.25 µM came out at 0% (Mus musculus, +0.125 mg/ml AGP vs no AGP, read-out: % Reduction (of inhibition by AGP)); 20 ± 2% (Mus musculus, +0.125 mg/ml AGP, read-out: % Inhibition of 3H-thymidine uptake, +0.125 mg/ml AGP); 17% under setting [1]. Also, the inhibition at 1 µM under setting [1] was 68 ± 14%. Under “Mus musculus, L1210, no AGP”, this compound displayed a concentration for half-maximal inhibition (IC50) of about 300 nM. For the setting “in words”, the “Effect of AGP on the inhibition of thymidine uptake” value is listed as “no significant reduction”.
Take `CN(Cc1ccccc1)c1nc(OCCCO)nc2c(N(C)Cc3ccccc3)nc(OCCCO)nc12` [NU3088, 2,6-Di(3'-hydroxypropoxy)-4,8-di[(N-benzylmethyl)amino]pyrimidopyrimidine]: the “% Inhibition of 3H-thymidine uptake, No AGP” value (“% Inhibition … No AGP” below) runs as follows: (1 μM compound, no AGP) 52 ± 19%; (10 μM compound, no AGP, 10 µM) 100% and 77%. This compound also gave a half-inhibitory concentration (IC50) (no AGP) of 1440 nM.
For `COc1ccc(CNc2nc(OCCO)nc3c(NCc4ccc(OC)cc4)nc(OCCO)nc23)cc1` [NU3089, 2,6-Di(2'-hydroxyethoxy)-4,8-di(4'-methoxybenzylamino)pyrimidopyrimidine], the “% Inhibition … No AGP” value (1 μM compound, no AGP, 1 µM) turned out to be 24 ± 18%. The inhibition at 1 µM reads like this: under setting [2], 0%; under setting [3], 28 ± 25%; under setting [1], 40 ± 19%. The inhibition at 10 µM under setting [1] came to 88 ± 11%. Further, the IC50 was 670 nM (Mus musculus, L1210, no AGP) and 1200 nM (no AGP).
As for `COc1ccc(CN(C)c2nc(OCCCO)nc3c(N(C)Cc4ccc(OC)cc4)nc(OCCCO)nc23)cc1` [NU3090, 2,6-Di(3'-hydroxypropoxy)-4,8-di[(N-4'-methoxybenzylmethyl)amino]pyrimidopyrimidine], the “% Reduction (of inhibition by AGP)” value (1 μM compound, +5 mg/ml AGP vs no AGP) amounted to 53%. Also, the “% Inhibition of 3H-thymidine uptake, +5 mg/ml AGP” value (“% Inhibition … +5 mg/ml AGP” below) (1 μM compound, +5 mg/ml AGP, 1 µM) is 32 ± 10% and 32%. Also, the “% Inhibition … No AGP” value was 74 ± 18% and 69 ± 19% (1 μM compound, no AGP, 1 µM); 100 ± 0% (10 μM compound, no AGP). Besides, the IC50 (no AGP) was 220 nM and 240 nM.
Regarding `CCCOc1nc(N(C)Cc2ccccc2)c2nc(OCCC)nc(N(C)Cc3ccccc3)c2n1` [NU3091, 2,6-Di(n)propoxy-4,8-di[(N-benzylmethyl)amino]-pyrimidopyrimidine], the “% Inhibition … No AGP” value (1 μM compound, no AGP) is “Inactive”. In addition, the inhibition at 10 µM under setting [1] was 8.2 ± 1.1%.
On to `COCCOc1nc(N(C)Cc2ccccc2)c2nc(OCCOC)nc(N(C)Cc3ccccc3)c2n1` [NU3092, 2,6-Di(-2'-methoxyethoxy)-4,8-di[(N-benzylmethyl)amino]-pyrimidopyrimidine], for which, under setting [1], the inhibition at 1 µM amounted to 17 ± 8% and the inhibition at 10 µM came to 68 ± 8%. Moreover, the IC50 (Mus musculus, L1210, no AGP) was 5900 nM. Moreover, the IC50 (no AGP) is 3800 nM.
In the case of `COCCOc1nc(N2CCCCC2)c2nc(OCCOC)nc(N3CCCCC3)c2n1` [NU3093, 2,6-Di(-2'-methoxyethoxy)-4,8-dipiperidinopyrimidopyrimidine], the “% Inhibition … No AGP” value (10 μM compound, no AGP, 10 µM) is reported as 68%. Moreover, under setting [1], the inhibition at 1 µM was 20 ± 6% and the inhibition at 10 µM was determined as 63%. In addition, where the note is “Mus musculus, L1210, no AGP”, the concentration for half-maximal inhibition (IC50) stood at 4600 nM.
As for `COCCOc1nc(N(Cc2ccccc2)Cc2ccccc2)c2nc(OCCOC)nc(N(Cc3ccccc3)Cc3ccccc3)c2n1` [NU3094, 2,6-di(-2-methoxyethoxy)-4,8-bis(dibenzylamino) pyrimidopyrimidine], under setting [1], the inhibition at 1 µM turned out to be 9 ± 10% and the inhibition at 10 µM is 15 ± 4%.
For `COCCOc1nc(NCc2ccccc2)c2nc(OCCOC)nc(NCc3ccccc3)c2n1` [NU3095, 2,6-di(-2-methoxyethoxy)-4,8-dibenzylaminopyrimidopyrimidine], under setting [1], the inhibition at 1 µM came out at 31.2% and the inhibition at 10 µM is 78.4 ± 4.2%. For the setting “Mus musculus, L1210, no AGP”, this compound returned a half-inhibitory concentration (IC50) of 2400 nM.
In the case of `COc1ccc(CN(C)c2nc(OCCCO)nc3c(N(C)Cc4ccc(OC)c(OC)c4)nc(OCCCO)nc23)cc1OC` [NU3096, 2,6-di(-3-hydroxypropoxy)-4,8-bis[(-3,4-dimethoxybenzyl)-N-methylamino]pyrimidopyrimidine], the inhibition at 1 µM under setting [1] amounted to 54 ± 2%. For the setting “Mus musculus, L1210, no AGP”, this compound had an IC50 of 750 nM.
Consider `COc1ccc(CNc2nc(OCCCO)nc3c(NCc4ccc(OC)cc4)nc(OCCCO)nc23)cc1` [NU3097, 2,6-di(-3-hydroxypropoxy)-4,8-di(-4-methoxybenzylamino)pyrimidopyrimidine], for which, where the note is “1 μM compound, no AGP, 1 µM”, the “% Inhibition … No AGP” value amounted to 62%. Moreover, the inhibition at 1 µM reads like this: under setting [2], 21%; under setting [3], 49%; under setting [1], 61 ± 8%. In addition, the IC50 runs as follows: (Mus musculus, L1210, no AGP) 460 nM; (no AGP) 820 nM.
For the compound `CN(Cc1ccccc1)c1nc(OCCO)nc2c(N(C)Cc3ccccc3)nc(OCCO)nc12` [NU3098, 2,6-di(-2-hydroxyethoxy)-4,8-di(N-methylbenzylamino)pyrimidopyrimidine], for the setting “10 μM compound, no AGP, 10 µM”, the “% Inhibition … No AGP” value amounted to 87 ± 11%. For the same compound, the inhibition at 1 µM under setting [1] turned out to be 44%. In addition, the IC50 (no AGP) amounted to 1870 nM.
Take `COc1ccc(CNc2nc(NCCO)nc3c(NCc4ccc(OC)cc4)nc(NCCO)nc23)cc1` [NU3099, 2,6-Di-(2-hydroxyethyl)amino-4,8-di-[4-methoxybenzyl]-aminopyrimidopyrimidine]: where the note is “1 μM compound, no AGP, 1 µM”, the “% Inhibition … No AGP” value is 52% and 62% and 65%. Also, the “% Inhibition … +5 mg/ml AGP” value under setting [4] was 30% and 35%. The compound further returned an inhibition at 0.1 µM (Mus musculus, no AGP) of 5%. In addition, under setting [1], the inhibition at 1 µM worked out at 54%. Also, the midpoint of inhibition (Mus musculus, L1210, no AGP), the IC50, lay at 930 nM and half-maximal inhibition (no AGP) (IC50) was put at 1200 nM.
Take `COc1ccc(CN(C)c2nc(OCCCO)nc3c(N(C)Cc4ccc(OC)cc4)nc(OCCCO)nc23)cc1` [NU3100, 2,6-Di-(3-hydroxypropoxy)-4,8-di-(N-[4-methoxybenzyl]-N-methyl)aminopyrimidopyrimidine]: the inhibition at 1 µM under setting [1] turned out to be 88%. This compound also came in with an IC50 (Mus musculus, L1210, no AGP) of 190 nM.
Take `OCCNc1nc(NCc2ccccc2)c2nc(NCCO)nc(NCc3ccccc3)c2n1` [NU3101, 2,6-Di-(2-hydroxyethylamino)-4,8-dibenzylaminopyrimidopyrimidine]: where the note is “Mus musculus, no AGP”, the inhibition at 0.1 µM turned out to be 2%. Besides, the inhibition at 1 µM under setting [1] stood at 58%.
On to `COc1ccc(CN(C)c2nc(N(CCO)CCO)nc3c(N(C)Cc4ccc(OC)cc4)nc(N(CCO)CCO)nc23)cc1` [NU3102, 2,6-bis-Diethanolamino-4,8-di-(N-[4-methoxybenzyl]-N-methyl)aminopyrimidopyrimidine], for which the “% Inhibition … No AGP” value was 20% under setting [5]; 57% (1 μM compound, no AGP, 1 µM); “insoluble” (10 μM compound, no AGP). Besides, the inhibition at 0.1 µM (Mus musculus, no AGP) came to 23%. Moreover, under setting [1], the inhibition at 1 µM is 51%. The compound also displayed a 50% inhibitory concentration (IC50) (Mus musculus, L1210, no AGP) of 980 nM and an IC50 (no AGP) of 840 nM.
Consider `CN(Cc1ccccc1)c1nc(OCCO)nc2c(N(C)Cc3ccccc3)nc(OCCO)nc12` [NU3103, 2,6-Di-(2-hydroxyethoxy)-4,8-di-(N-benzyl-N-methyl)aminopyrimidopyrimidine], for which the “% Inhibition … No AGP” value reads like this: under setting [5], 18%; (1 μM compound, no AGP, 1 µM) 50% and 60%; (10 μM compound, no AGP, 10 µM) 84%. Also, the “% Inhibition … +5 mg/ml AGP” value under setting [4] was 21% and 23%. The compound also came in with an inhibition at 0.1 µM (Mus musculus, no AGP) of 12%. The inhibition at 10 µM under setting [1] amounted to 90%. For the same compound, the IC50 (no AGP) is 1010 nM and 800 nM.

For orientation: IC50 means the concentration that inhibits the measured activity by half. A lower IC50 goes with greater potency.
